These compounds were tested against AMPK (assay: AMPK activation, enzyme-linked immunosorbent assay). Conditions: Table 8, compounds of Table 1.
Type: biochemical
Description: Compounds of Table 1 were assayed for their ability to activate AMPK using an enzyme-linked immunosorbent assay.
Compounds of Table 2 were assayed for their ability to activate AMPK using an enzyme-linked immunosorbent assay.
Compounds of Table 3 were assayed for their ability to activate AMPK using an enzyme-linked immunosorbent assay.
Compounds of Table 4 were assayed for their ability to activate AMPK using an enzyme-linked immunosorbent assay.
Compounds of Table 5 were assayed for their ability to activate AMPK using an enzyme-linked immunosorbent assay.
Compounds of Table 6 were assayed for their ability to activate AMPK using an enzyme-linked immunosorbent assay.
Compounds of Table 7 were assayed for their ability to activate AMPK using an enzyme-linked immunosorbent assay.

EC50 [nM]	SMILES
1000 to 5000	O=C(N[C@@H]1CCN(S(=O)(=O)c2cccnc2)C1)c1cc2cc(OC3CCN(c4ccc(C(F)(F)F)cc4)CC3)ccc2o1 [Compound 1-126, (R)-N-(1-(pyridin-3-ylsulfonyl)pyrrolidin-3-yl)-5-(1-(4-(trifluoromethyl)phenyl)piperidin-4-yloxy)benzofuran-2-carboxamide]
100 to 500	O=C(NC1CCN(S(=O)(=O)c2cccnc2)CC1)c1cc2ccc(OC3CCN(c4ccc(OC(F)(F)F)cc4)CC3)cc2o1 [Compound 1-108, N-(1-(pyridin-3-ylsulfonyl)piperidin-4-yl)-6-(1-(4-(trifluoromethoxy)phenyl)piperidin-4-yloxy)benzofuran-2-carboxamide]
< 100	CN(C(=O)c1cc2cc(OC3CCN(c4ccc(C(F)(F)F)cc4)CC3)ccc2o1)C1CCN(Cc2ccc(C(F)(F)F)cc2)CC1 [Compound 1-119, N-methyl-N-(1-(4-(trifluoromethyl)benzyl)piperidin-4-yl)-5-(1-(4-(trifluoromethyl)phenyl)piperidin-4-yloxy)benzofuran-2-carboxamide]
< 100	N#Cc1ccc(CN2CCC(NC(=O)c3cc4ccc(OC5CCN(c6ccc(OC(F)(F)F)cc6)CC5)cc4o3)CC2)cc1 [Compound 1-89, N-(1-(4-cyanobenzyl)piperidin-4-yl)-6-(1-(4-(trifluoromethoxy)phenyl)piperidin-4-yloxy)benzofuran-2-carboxamide]
100 to 500	O=S(=O)(NC1CCN(Cc2cccc(C(F)(F)F)c2)CC1)c1ccc(OC2CCN(c3ccc(C(F)(F)F)cc3)CC2)nc1 [Compound 1-59, N-(1-(3-(trifluoromethyl)benzyl)piperidin-4-yl)-6-(1-(4-(trifluoromethyl)phenyl)piperidin-4-yloxy)pyridine-3-sulfonamide]
< 100	N#Cc1ccccc1CN1CCC(NC(=O)c2cc3ccc(OC4CCN(c5ccc(OC(F)(F)F)cc5)CC4)cc3o2)CC1 [Compound 1-97, N-(1-(2-cyanobenzyl)piperidin-4-yl)-6-(1-(4-(trifluoromethoxy)phenyl)piperidin-4-yloxy)benzofuran-2-carboxamide]
< 100	N#Cc1ccc(CN2CCC(NC(=O)c3cc4cc(O[C@@H]5CCN(Cc6ccc(Oc7ccc(F)cc7)cc6)C[C@H]5F)ccc4o3)CC2)cc1 [Compound 1-165, N-(1-(4-cyanobenzyl)piperidin-4-yl)-5-((3,4-trans)-3-fluoro-1-(4-(4-fluorophenoxy)benzyl)piperidin-4-yloxy)benzofuran-2-carboxamide]
100 to 500	O=C(N[C@@H]1CCN(Cc2ccncc2)C1)c1ccc(OC2CCN(c3ccc(C(F)(F)F)cc3)CC2)cn1 [Compound 1-25, (R)-N-(1-(pyridin-4-ylmethyl)pyrrolidin-3-yl)-5-(1-(4-(trifluoromethyl)phenyl)piperidin-4-yloxy)picolinamide]

Same assay, conditions: Table 9, compounds of Table 2

EC50 [nM]	SMILES
1000 to 5000	O=C(NC1CCN(S(=O)(=O)c2ccc(Cl)cc2)CC1)c1ccc2[nH]c3c(c2c1)CN(Cc1ccc(C(F)(F)F)cc1)CC3 [Compound 2-32, N-(1-(4-chlorophenylsulfonyl)piperidin-4-yl)-2-(4-(trifluoromethyl)benzyl)-2,3,4,5-tetrahydro-1H-pyrido[4,3-b]indole-8-carboxamide]
10000 to 50000	O=C(NC1CCN(S(=O)(=O)c2ccc(F)cc2)CC1)c1ccc2[nH]c3c(c2c1)CN(c1ccc(F)cc1)CC3 [Compound 2-35, 2-(4-fluorophenyl)-N-(1-(4-fluorophenylsulfonyl)piperidin-4-yl)-2,3,4,5-tetrahydro-1H-pyrido[4,3-b]indole-8-carboxamide]

Same assay, conditions: Table 10, compounds of Table 3

EC50 [nM]	SMILES
< 100	N#Cc1ccc(CN2CCC(NC(=O)c3ccc(C(=O)N4CCN(Cc5ccc(Cl)cc5)CC4)cc3)CC2)cc1 [Compound 3-28, 4-(4-(4-chlorobenzyl)piperazine-1-carbonyl)-N-(1-(4-cyanobenzyl)piperidin-4-yl)benzamide]
< 100	N#Cc1ccc(CN2CCC(NC(=O)c3ccc(C(=O)NC4CCN(Cc5ccc(C(F)(F)F)cc5)CC4)cc3)CC2)cc1 [Compound 3-31, N^1-(1-(4-cyanobenzyl)piperidin-4-yl)-N^4-(1-(4-(trifluoromethyl)benzyl)piperidin-4-yl)terephthalamide]
10000 to 100000	N#Cc1ccc(CN2CCC(NC(=O)c3ccc(C(=O)NC4CCN(Cc5ccccc5)CC4)cc3)CC2)cc1 [Compound 3-33, N^1-(1-benzylpiperidin-4-yl)-N^4-(1-(4-cyanobenzyl)piperidin-4-yl)terephthalamide]
100 to 1000	NC(=O)c1ccc(CN2CC3CC2CN3C(=O)c2nc3ccc(OC4CCN(c5ccc(C(F)(F)F)cc5)CC4)cc3o2)cc1 (stereo not drawn) [Compound 3-9, 4-((5-(6-(1-(4-(trifluoromethyl)phenyl)piperidin-4-yloxy)benzo[d]oxazole-2-carbonyl)-2,5-diazabicyclo[2.2.1]heptan-2-yl)methyl)benzamide]
< 100	N#Cc1ccc(CN2CCC(NC(=O)c3nc4ccc(OC5CCN(c6ccc(C(F)(F)F)cc6)CC5)cc4o3)CC2)cc1 [Compound 3-2, N-(1-(4-cyanobenzyl)piperidin-4-yl)-6-(1-(4-(trifluoromethyl)phenyl)piperidin-4-yloxy)benzo[d]oxazole-2-carboxamide]

Same assay, conditions: Table 11, compounds of Table 4

EC50 [nM]	SMILES
< 500	N#Cc1ccc(CN2CCC(NC(=O)c3ccc(C(=O)N4CCN(c5ccc(C(=O)C6CC6)cc5)CC4)nc3)[C@H](F)C2)cc1 (stereo partly drawn) [Compound 4-12, N-((3,4-trans)-1-(4-cyanobenzyl)-3-fluoropiperidin-4-yl)-6-(4-(4-(cyclopropanecarbonyl)phenyl)piperazine-1-carbonyl)nicotinamide]

Same assay, conditions: Table 12, compounds of Table 5

EC50 [nM]	SMILES
< 1000	O=C(NC1CCN(Cc2ccccc2)CC1)c1cc(Cl)c(OC2CCN(Cc3ccc(F)c(F)c3)CC2)c(Cl)c1 [Compound 5-76, N-(1-benzylpiperidin-4-yl)-3,5-dichloro-4-(1-(3,4-difluorobenzyl)piperidin-4-yloxy)benzamide]
< 1000	COc1cc(C(=O)NCCCNC(=O)OC(C)(C)C)ccc1OC1CCN(Cc2ccc(C(F)(F)F)cc2)CC1 [Compound 5-94, tert-butyl 3-(3-methoxy-4-(1-(4-(trifluoromethyl)benzyl)piperidin-4-yloxy)benzamido) propylcarbamate]
1000 to 10000	CN1CCC(NC(=O)c2ccc(OC3CCN(Cc4ccc(C(F)(F)F)cc4)CC3)c(Cl)c2)CC1 [Compound 5-58, 3-chloro-N-(1-methylpiperidin-4-yl)-4-(1-(4-(trifluoromethyl)benzyl)piperidin-4-yloxy)benzamide]
< 1000	N#Cc1ccc(CN2CCC(NC(=O)c3ccc(OC4CCN(c5ccc(C#N)cc5)CC4)c(F)c3)CC2)cc1 [Compound 5-45, N-(1-(4-cyanobenzyl)piperidin-4-yl)-4-(1-(4-cyanophenyl)piperidin-4-yloxy)-3-fluorobenzamide]
< 1000	O=C(NC1CCN(Cc2ccc(Cl)cc2)CC1)c1ccc(OC2CCN(Cc3ccc(Cl)cc3)CC2)c(F)c1 [Compound 5-72, N-(1-(4-chlorobenzyl)piperidin-4-yl)-4-(1-(4-chlorobenzyl)piperidin-4-yloxy)-3-fluorobenzamide]
< 1000	O=C(NC1CCN(Cc2ccccc2)CC1)c1ccc(OC2CCN(Cc3ccc(Cl)cc3)CC2)c(F)c1 [Compound 5-64, N-(1-benzylpiperidin-4-yl)-4-(1-(4-chlorobenzyl)piperidin-4-yloxy)-3-fluorobenzamide]
< 1000	N#Cc1ccc(CN2CCC(NC(=O)c3cccc(OC4CCN(Cc5ccc(-c6ccccn6)cc5)CC4)c3)CC2)cc1 [Compound 5-118, N-(1-(4-cyanobenzyl)piperidin-4-yl)-3-(1-(4-(pyridin-2-yl)benzyl)piperidin-4-yloxy)benzamide]
< 1000	N#Cc1ccc(N2CCC(Oc3cccc(C(=O)NC4CCN(Cc5ccccc5)CC4)c3)CC2)cc1 [Compound 5-48, N-(1-benzylpiperidin-4-yl)-3-(1-(4-cyanophenyl)piperidin-4-yloxy)benzamide]

Same assay, conditions: Table 13, compounds of Table 6

EC50 [nM]	SMILES
< 100	CS(=O)(=O)c1ccc(O[C@H]2CCN(C(=O)c3ccc4oc(C(=O)NC5CCN(Cc6ccc(C#N)cc6)CC5)cc4c3)C[C@@H]2F)cc1 [Compound 6-113, N-(1-(4-cyanobenzyl)piperidin-4-yl)-5-((3,4-trans)-3-fluoro-4-(4-(methylsulfonyl)phenoxy)piperidine-1-carbonyl) benzofuran-2-carboxamide]
< 100	N#Cc1ccc(CN2CCC(NC(=O)c3cc4cc(C(=O)N5CCN(c6ccc(C(=O)C7CC7)cc6)CC5)ccc4o3)CC2)cc1 [Compound 6-109, N-(1-(4-cyanobenzyl)piperidin-4-yl)-5-(4-(4-(cyclopropanecarbonyl)phenyl)piperazine-1-carbonyl)benzofuran-2-carboxamide]
100 to 1000	N#Cc1ccc(CN2CCC(NC(=O)c3cc4cc(NC(=O)c5ccc(C#N)cc5)ccc4o3)CC2)cc1 [Compound 6-57]

Same assay, conditions: Table 14, compounds of Table 7

EC50 [nM]	SMILES
< 1000	COc1ccc(C(=O)C2CCN(C(=O)c3ccc(C(=O)NC4CCN(Cc5cccc(C#N)c5)C[C@@H]4F)cn3)CC2)cc1 (stereo partly drawn) [Compound 7-27, N-((3,4-trans)-1-(3-cyanobenzyl)-3-fluoropiperidin-4-yl)-6-(4-(4-methoxybenzoyl)piperidine-1-carbonyl)nicotinamide]
< 1000	COc1ccc(C(=O)C2CCN(C(=O)c3ccc(C(=O)N[C@H]4CCN(Cc5ccc(OC(F)(F)F)cc5)C[C@H]4F)cn3)CC2)cc1 (relative stereo) [Compound 7-123, N-((cis)-3-fluoro-1-(4-(trifluoromethoxy)benzyl)piperidin-4-yl)-6-(4-(4-methoxybenzoyl)piperidine-1-carbonyl)nicotinamide]
< 1000	COc1ccc(C(=O)C2CCN(C(=O)c3ccc(C(=O)NC4CCN(Cc5ccc(C#N)cc5)C[C@@H]4C(F)(F)F)cn3)CC2)cc1 (stereo partly drawn) [Compound 7-101, N-((3,4-cis)-1-(4-cyanobenzyl)-3-(trifluoromethyl)piperidin-4-yl)-6-(4-(4-methoxybenzoyl)piperidine-1-carbonyl)nicotinamide]

From patent US9409884B2 (Rigel Pharmaceuticals, Inc., priority 2012, dated 2016)
